US8663669B2, “Pesticide treatment of soils or substrates with sulphur compounds” (Arkema France, priority 2002, dated 2014)

Key:
[1] = test system: termite (Reticulitermes santonensis); conditions: value given for comparison, not among the 3 products tested; cited from earlier work
[2] = test system: eggs of nematodes (Meloidogyne arenaria); assay: Ovicidal activity on the eggs of nematodes (number of hatchings); type: in vivo
Procedure: (§1) The breeding of the nematodes was carried out on tomato plants. The tests were carried out with, aqueous solutions of DMDS at 0.0001%, 0.1%, 1% and 5% by mass, of DPDS at 1%, 5% and 10% by mass, and of allicin at 0.0003%, 0.0015% and 0.003% by mass, compared with a control consisting of pure water, and repeated five times. The ovicidal activity was also evaluated according to the same modalities, by counting the number of hatchings after 5 to 20 days following exposure to the products.

[3] = test system: larvae of Meloidogyne arenaria; assay: Nematicidal in vitro test on second-stage juvenile larvae; type: in vivo; conditions: for Immobility rate after 48 h: 24 h in solution then 24 h in pure water
Procedure: The second-stage juvenile larvae (the free and infesting stage) are immersed for 24 hours in the test solution and then the number of larvae paralysed are counted before transferring them into pure water for another 24 hours. At the end of the 48 hours which have thus elapsed, the larvae paralysed are again counted and the larvae truly dead are counted the next day.
as §1

[4] = test system: termite (Reticulitermes santonensis); assay: Insecticidal in vitro fumigation test on termites; type: in vivo; conditions: 24 hours of fumigation, mortality counted at the end of 48 hours; 25° C.
Procedure: Dead wood infested with termites was collected from the soil on ground occupied by a colony. This dead wood serves as breeding medium. The breeding is maintained at a constant 25° C. and a day/night 12:12 alternation.
The insects are removed in an amount of 2 soldiers per 28 workers.
The tests are carried out in hermetically closed glass jars having a volume of 3 L and containing the insects.
The product to be tested is introduced through a hole 2 mm in diameter with the aid of a micropipette and deposited on a filter paper (2×5 cm: Whatman No. 1) suspended at the centre of the jar where it migrates by capillarity and vaporizes rapidly. The hole is hermetically closed again as quickly as possible.
The jars are placed for 24 hours in an incubator under the same breeding conditions.
At the end of 24 hours, after a few instants of aeration, a first count is made and then the insects are placed again under breeding conditions for another 24 hours. The counting of the mortality is therefore carried out at the end of 48 hours. […] Each test is carried out on a population of 30 to 50 insects and is accompanied by a control without treatment. Several repeats are carried out with doses close to the LC50.

## CBr [methyl bromide]
[1]
  LC50 of the comparison fumigant: 0.1 g×24 h/m^3

## CCCSSCCC [DPDS, dipropyl disulphide]
[2]; 1-10 % by mass
  Ovicidal activity: very high ovicidal activity
[2]; concentration by mass 1 %, D5, control 550
  Number of hatchings (cumulative): 117
[2]; concentration by mass 1 %, D8, control 810
  Number of hatchings (cumulative): 183
[2]; concentration by mass 1 %, D12, control 990
  Number of hatchings (cumulative): 200
[2]; concentration by mass 1 %, D15, control 1 030
  Number of hatchings (cumulative): 200
[2]; concentration by mass 1 %, D19, control 1 030
  Number of hatchings (cumulative): 200
[2]; concentration by mass 5 %, D5, control 550
  Number of hatchings (cumulative): 67
[2]; concentration by mass 5 %, D8, control 810
  Number of hatchings (cumulative): 67
[2]; concentration by mass 5 %, D12, control 990
  Number of hatchings (cumulative): 67
[2]; concentration by mass 5 %, D15, control 1 030
  Number of hatchings (cumulative): 67
[2]; concentration by mass 5 %, D19, control 1 030
  Number of hatchings (cumulative): 67
[2]; concentration by mass 10 %, D5, control 550
  Number of hatchings (cumulative): 33
[2]; concentration by mass 10 %, D8, control 810
  Number of hatchings (cumulative): 33
[2]; concentration by mass 10 %, D12, control 990
  Number of hatchings (cumulative): 33
[2]; concentration by mass 10 %, D15, control 1 030
  Number of hatchings (cumulative): 33
[2]; concentration by mass 10 %, D19, control 1 030
  Number of hatchings (cumulative): 33
[2]; on the last day of observation
  Reduction in the number of hatchings: approximately 97%
[3]; by mass, aqueous solution
  Concentration for total efficacy (100% mortality): greater than or equal to 1%
[3]; concentration by mass 1 %
  Mortality rate after 72 h: 100%
  Immobility rate after 48 h: 100%
[3]; concentration by mass 1 %, aqueous solution
  Immobility rate after 24 h: 89%
[3]; concentration by mass 5 %
  Mortality rate after 72 h: 100%
  Immobility rate after 48 h: 100%
[3]; concentration by mass 5 %, aqueous solution
  Immobility rate after 24 h: 93%
[3]; concentration by mass 10 %
  Mortality rate after 72 h: 100%
  Immobility rate after 48 h: 100%
[3]; concentration by mass 10 %, aqueous solution
  Immobility rate after 24 h: 95%
[3]; concentration of greater than or equal to 1%
  Nematostatic and nematicidal activity: high nematostatic and nematicidal activity

## C=CCS[S+]([O-])CC=C (centres unmarked) [allicin, diallyl thiosulphinate]
[3]; at much lower concentrations (0.0003-0.003% by mass)
  Nematostatic and nematicidal activity: high nematostatic and nematicidal activity
[3]; concentration by mass 0.0003 %
  Mortality rate after 72 h: 12%
  Immobility rate after 48 h: 49%
[3]; concentration by mass 0.0003 %, aqueous solution
  Immobility rate after 24 h: 7%
[3]; concentration by mass 0.0015 %
  Mortality rate after 72 h: 45%
  Immobility rate after 48 h: 85%
[3]; concentration by mass 0.0015 %, aqueous solution
  Immobility rate after 24 h: 19%
[3]; concentration by mass 0.003 %
  Mortality rate after 72 h: 63%
  Immobility rate after 48 h: 65%
[3]; concentration by mass 0.003 %, aqueous solution
  Immobility rate after 24 h: 49%
[4]
  LC50 (Probits method): 0.010 g × 24 h/m^3

## C=CCSSCC=C [DADS, diallyldisulphide]
[4]
  LC50 (Probits method): 0.011 g × 24 h/m^3
